The test system of assay [1] is human c-mpl-Ba/F3 cells. The assay is described as follows: Oral administration test for mice (c-mpl-Ba/F3 proliferation activity of plasma). Format: in vivo. The conditions noted are these: male ICR mice, final plasma concentration 10%, maximum of each tested compound = 100%. The protocol:
To male ICR mice, a tested compound dissolved or suspended in 0.5% methylcellulose aqueous solution was orally administrated in an amount of 100 mg/kg or 10 mg/kg. […] Plasma obtained by centrifugation at 12,000 rpm for 3 minutes was warmed up at 56° C. for 30 minutes, and added to the human c-mpl.Ba/F3 cell proliferation system described in (i) such that the final plasma concentration became 10%, and then cell proliferation activity was measured. The cell proliferation activity (%) of each plasma batch, when maximum cell proliferation activity of each tested compound was set to 100%, was calculated.

Assay [2] deals with human c-mpl-Ba/F3 cells. The assay is described as follows: Human c-mpl-Ba/F3 cell proliferation test. Format: cell-based. The conditions noted are these: for pot.: concentration promoting cell proliferation to 30% of maximum cell proliferation activity value of Example 9 (of rhTPO for rhTPO), 24 hours culture; for Efficacy: maximum cell proliferation activity, maximum of Example 9 (of rhTPO for rhTPO) set to 100%. How it is done: In a 96 well microplate, 2×10^5 cells/ml of human c-mpl-Ba/F3 cells were cultured at 37° C. for 24 hours with 10% fetal bovine serum containing a RPMI1640 medium (100 μl/well) to which varied concentrations of tested compounds were respectively added. After the culturing, 10 μl/well of WST-1/1-methoxy PMS (cell counting kit, Dojindo) were added. Immediately after the adding and after 2 hours, absorbance of A450/A650 was measured with a microplate reader (Model 3350:Bio-Rad), and the absorbance increase after 2 hours was regarded as proliferation activity of each tested compound.
pot.: Concentration of tested compound for promoting cell proliferation of the compound of Example 9 (compound of Example 9 and rhTPO in rhTPO) to 30% of maximum cell proliferation activity value.
Efficacy: Maximum cell proliferation activity value of tested compound when the maximum cell proliferation activity value of the compound of Example 9 (compound of Example 9 and rhTPO in rhTPO) is set to 100%.

Another assay has as its system Human CD34+ cells. The assay is described as follows: Test for measuring effects of promoting the formation of megakaryocytic colonies. Format: cell-based. As to conditions: megakaryocytic colonies per well, 10-14 days. How it is done:
Human CD34^+ cells were cultured at 37° C. for 10-14 days in the presence of tested materials in a 2 well chamber slide, using MegaCult™-C (Stem Cell Technologies). In accordance with the attached instructions, dehydration, fixing, and staining with antihuman glycoprotein IIb/IIIa antibody were carried out. A group of 3 or more stained megakaryocytes was regarded as 1 colony, and the number of colonies per well was measured with a microscope. EC30 values of each tested compound were calculated from a capacity curve.

Where [3] appears, read: plasma 2 hours after 100 mg/kg p.o.
[4] abbreviates: plasma 2 hours after 10 mg/kg p.o.

Structures can show the parent of a compound that is named as a salt.

On to `O=C1NC(=S)S/C1=C\c1ccc(C(=O)Nc2nc(-c3ccc(Cl)c(Cl)c3)cs2)cc1` [Control 1, reference compound], for which the Cell proliferation activity in the assay on human c-mpl-Ba/F3 cells [1] (setting [3]) is reported as less than 10%. In the assay with human c-mpl-Ba/F3 cells [2], the pot. is listed as 4.4 nM and the Efficacy stood at 101%.

In turn, `O=C(O)/C(Cl)=C/c1ccc(C(=O)Nc2nc(-c3ccc(Cl)c(Cl)c3)cs2)cc1` [Control 2, reference compound] displayed a Cell proliferation activity in the assay on human c-mpl-Ba/F3 cells [1] (setting [3]) of less than 10%. In the assay on human c-mpl-Ba/F3 cells [2], this compound showed a pot. of 2.1 nM and an Efficacy of 96%.

Consider `Cc1sc(NC(=O)c2ccc(/C=C(\Cl)C(=O)O)cc2)nc1-c1cccc(C(F)(F)F)c1` [Control 3, reference compound], for which, in the assay on human c-mpl-Ba/F3 cells [1] (setting [3]), the Cell proliferation activity is on record as less than 10%. In addition, in the assay with human c-mpl-Ba/F3 cells [2], the pot. came to 6.9 nM and the Efficacy stood at 96%.

In the assay on human c-mpl-Ba/F3 cells [2], `O=C(Nc1nc(-c2cc(Cl)cs2)c(N2CCN(C3CCCCC3)CC2)s1)c1ccc(OCCO)c(Cl)c1` [Example 9, 3-chloro-N-[4-(4-chlorothiophen-2-yl)-5-(4-cyclohexylpiperazin-1-yl)thiazol-2-yl]-4-(2-hydroxyethoxy)benzamide hydrochloride] showed a pot. of 10 nM and an Efficacy of 87%. In the assay on Human CD34+ cells, this compound yielded an EC30 of 0.012 µM.

`Cl.O=C(Nc1nc(-c2cc(Cl)cs2)c(N2CCN(C3CCCCC3)CC2)s1)c1cnc(N2CCC(C(=O)O)CC2)c(Cl)c1` [Example 16, 1-(3-chloro-5-{[4-(4-chlorothiophen-2-yl)-5-(4-cyclohexylpiperzain-1-yl)thiazol-2-yl]carbamoyl}pyridin-2-yl)piperidine-4-carboxylic acid hydrochloride]: in the assay with human c-mpl-Ba/F3 cells [1] (setting [4]), the Cell proliferation activity is listed as greater than 80%. In the assay with human c-mpl-Ba/F3 cells [2], this compound had a pot. of 2.4 nM and an Efficacy of 93%.

Take `CCCC1CCN(c2sc(NC(=O)c3ccnc(OC)c3)nc2-c2cc(Cl)cs2)CC1` [Example 66]: the Cell proliferation activity with human c-mpl-Ba/F3 cells [1] (setting [4]) is 61%. Moreover, in the assay on human c-mpl-Ba/F3 cells [2], the pot. is 14 nM and the Efficacy was 99%. This compound had a concentration for an effect of 30% (EC30) in the assay with Human CD34+ cells of 0.047 µM.

In the assay with human c-mpl-Ba/F3 cells [2], `CCCN1CCN(c2sc(NC(=O)c3ccc(OCCO)c(Cl)c3)nc2-c2cc(Cl)cs2)CC1` [Example 103, 3-chloro-N-[4-(4-chlorothiophen-2-yl)-5-(4-propylpiperazin-1-yl)thiazol-2-yl]-4-(2-hydroxyethoxy)benzamide] gave a pot. of 18 nM and an Efficacy of 97%.

With `O=C(Nc1nc(-c2cc(Cl)cs2)c(N2CCN(C3CCCCC3)CC2)s1)c1ccc2cnccc2c1` [Example 214, N-[4-(4-chlorothiophen-2-5-yl)-5-(4-cyclohexylpiperazin-1-yl)thiazol-2-yl]isoquinoline-6-carboxamide], in the assay on human c-mpl-Ba/F3 cells [1] (setting [4]), the Cell proliferation activity is on record as greater than 80%. In the assay with human c-mpl-Ba/F3 cells [2], the pot. stood at 15 nM and the Efficacy was 106%.

On to `O=C(Nc1nc(-c2cc(Cl)cs2)c(N2CCN(C3CCCCC3)CC2)s1)c1cnc(OCCCO)c(Cl)c1` [Example 250, 5-chloro-N-[4-(4-chlorothiophen-2-yl)-5-(4-cyclohexylpiperazin-1-yl)thiazol-2-yl]-6-(3-hydroxypropoxy)nicotinamide], for which the Cell proliferation activity in the assay on human c-mpl-Ba/F3 cells [1] (setting [4]) is greater than 80%. In the assay on human c-mpl-Ba/F3 cells [2], the pot. was determined as 6.7 nM and the Efficacy was 87%. Further, the EC30 in the assay on Human CD34+ cells is 0.026 µM.

“rhTPO: thrombopoietin (TPO), a c-Mpl ligand playing an important role in differentiation into megakaryocytes”: in the assay with human c-mpl-Ba/F3 cells [2], the pot. was determined as 0.012 nM and the Efficacy is reported as 100%.

Broadly, the EC30 is the point of the concentration-response curve where the effect stands at 30%.
